Measured values: patent publication US11986471B2, “Compounds and methods of use” (Tango Therapeutics, Inc., priority 2018, dated 2024)

Experiments:
Format in all cases: biochemical
[1] = target: T1, PRMT5 (Homo sapiens, UniProt O14744); experiment: PRMT5 IC50 assay in the presence of SAM as cofactor
T1 construct: purchased Viva (custom protein)
Description: (§1) Table 1a indicates IC50 values (μM) against PRMT5 for exemplary compounds in the presence of SAM as cofactor, with no cofactor and with MTA as cofactor, respectively (columns 3-5). […] The Ki values can be calculated from the IC50 values as described in the Examples section. As detailed in the Examples section, for the assay performed in the presence of SAM, IC50=Ki×1.5 (Ki=IC50/1.5). For the assay performed in the presence of MTA, IC50=Ki×13.5 (Ki=IC50/13.5). Column 6 indicates the ratio between the Ki of compounds in the presence of SAM and the Ki of compounds in the presence of MTA

[2] = target: T1, PRMT5; experiment: PRMT5 IC50 assay with no cofactor
Description: as §1

[3] = target: T1, PRMT5; experiment: PRMT5 IC50 assay in the presence of MTA as cofactor; conditions: for IC50: PRMT5, MTA as cofactor
Description: as §1

[4] = ratio between the Ki in the presence of SAM and the Ki in the presence of MTA
[5] = ratio between Ki in the presence of SAM and Ki in the presence of MTA

T1 sequence (O14744 whole entry): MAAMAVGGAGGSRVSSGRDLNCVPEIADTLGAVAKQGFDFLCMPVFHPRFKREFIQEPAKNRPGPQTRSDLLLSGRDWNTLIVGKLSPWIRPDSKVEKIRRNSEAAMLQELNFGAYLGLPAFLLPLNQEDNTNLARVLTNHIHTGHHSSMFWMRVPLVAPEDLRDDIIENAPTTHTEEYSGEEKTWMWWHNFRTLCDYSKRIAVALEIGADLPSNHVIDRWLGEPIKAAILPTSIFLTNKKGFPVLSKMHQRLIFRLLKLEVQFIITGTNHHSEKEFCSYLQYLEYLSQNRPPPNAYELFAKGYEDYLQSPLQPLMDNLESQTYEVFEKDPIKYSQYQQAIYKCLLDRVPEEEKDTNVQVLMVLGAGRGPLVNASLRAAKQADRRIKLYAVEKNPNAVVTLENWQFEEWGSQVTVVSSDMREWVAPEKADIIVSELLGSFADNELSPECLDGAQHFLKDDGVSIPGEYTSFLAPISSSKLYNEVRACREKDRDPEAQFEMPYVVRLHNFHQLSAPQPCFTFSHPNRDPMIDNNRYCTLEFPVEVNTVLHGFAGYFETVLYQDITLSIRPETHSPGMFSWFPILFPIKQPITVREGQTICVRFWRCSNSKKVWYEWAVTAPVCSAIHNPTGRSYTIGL
T1 sequence (Q9BQA1 whole entry partner): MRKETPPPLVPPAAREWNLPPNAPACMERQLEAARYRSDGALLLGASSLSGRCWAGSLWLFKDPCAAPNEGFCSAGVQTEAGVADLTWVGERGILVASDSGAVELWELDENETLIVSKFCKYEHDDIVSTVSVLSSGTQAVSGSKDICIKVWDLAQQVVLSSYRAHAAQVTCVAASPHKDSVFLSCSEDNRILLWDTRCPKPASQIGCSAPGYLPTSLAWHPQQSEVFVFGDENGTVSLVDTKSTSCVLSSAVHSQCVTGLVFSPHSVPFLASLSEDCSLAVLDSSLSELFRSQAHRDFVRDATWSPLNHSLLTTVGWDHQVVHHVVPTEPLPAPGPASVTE

| IC50 [1] [nM] | IC50 [2] [µM] | IC50 [3] [nM] | IC50 ([2]; read-out: No Co-factor IC50) [µM] | Compound | SAM/MTA Ratio [3, 4] | SAM/MTA Ratio [3, 5] |
| --- | --- | --- | --- | --- | --- | --- |
| 500 to 5000 | ≥ 5 | 50 to 500 | – | Cc1ncoc1COc1ccc2c(c1C)CCN(C[C@@H](O)CNC(=O)c1cc(NC3CCC3)nc(N3CCCCC3)c1)C2 [Compound 557, 2-(cyclobutylamino)-N-[(2S)-2-hydroxy-3-{5-methyl-6-[(4-methyl-1,3-oxazol-5-yl)methoxy]-1,2,3,4-tetrahydroisoquinolin-2-yl}propyl]-6-(piperidin-1-yl)pyridine-4-carboxamide] | A (a Ki ratio greater than or equal to 10 fold between the Ki in the presence of SAM and the Ki in the presence of MTA) | – |
| 500 to 5000 | ≥ 5 | 500 to 5000 | – | CC(=O)N1CCC(Nc2cccc(C(=O)NC[C@H](O)CN3CCc4cc(OCc5cnco5)ccc4C3)c2)C1 (stereo partly drawn) [Compound 558, 3-((1-acetylpyrrolidin-3-yl)amino)-N—((S)-2-hydroxy-3-(6-(oxazol-5-ylmethoxy)-3,4-dihydroisoquinolin-2(1H)-yl)propyl)benzamide] | A (a Ki ratio greater than or equal to 10 fold between the Ki in the presence of SAM and the Ki in the presence of MTA) | – |
| 500 to 5000 | ≥ 5 | 50 to 500 | – | CC(=O)N1CC(Nc2cc(C(=O)NC[C@H](O)CN3CCc4cc(OCc5cnco5)ccc4C3)ncn2)C1 [Compound 562, (S)-6-((1-acetylazetidin-3-yl)amino)-N-(2-hydroxy-3-(6-(oxazol-5-ylmethoxy)-3A-dihydroisoquinolin-2(1H)-yl)propyl)pyrimidine-4-carboxamide] | A (a Ki ratio greater than or equal to 10 fold between the Ki in the presence of SAM and the Ki in the presence of MTA) | – |
| 500 to 5000 | ≥ 5 | 500 to 5000 | – | Cc1c(OCc2cnco2)ccc2c1CCN(C[C@@H](O)CNC(=O)c1cc(NC3CN(C(=O)CC(C)C)C3)ncn1)C2 [Compound 565, N-[(2S)-2-hydroxy-3-{5-methyl-6-[(1,3-oxazol-5-yl)methoxy]-1,2,3,4-tetrahydroisoquinolin-2-yl}propyl]-6-{[1-(3-methylbutanoyl)azetidin-3-yl]amino}pyrimidine-4-carboxamide] | A (a Ki ratio greater than or equal to 10 fold between the Ki in the presence of SAM and the Ki in the presence of MTA) | – |
| 50 to 500 | ≥ 5 | 50 to 500 | – | CCC(=O)N1CC(Nc2cc(C(=O)NC[C@H](O)CN3CCc4c(ccc(OCc5cnco5)c4C)C3)ncn2)C1 [Compound 567, N-[(2S)-2-hydroxy-3-{5-methyl-6-[(1,3-oxazol-5-yl)methoxy]-1,2,3,4-tetrahydroisoquinolin-2-yl}propyl]-6-[(1-propanoylazetidin-3-yl)amino]pyrimidine-4-carboxamide] | A (a Ki ratio greater than or equal to 10 fold between the Ki in the presence of SAM and the Ki in the presence of MTA) | – |
| 500 to 5000 | ≥ 5 | 500 to 5000 | – | Cc1c(OCc2cnco2)ccc2c1CCN(C[C@@H](O)CNC(=O)c1cc(NC3CCOCC3)ccn1)C2 [Compound 573, N-[(2S)-2-hydroxy-3-{5-methyl-6-[(1,3-oxazol-5-yl)methoxy]-1,2,3,4-tetrahydroisoquinolin-2-yl}propyl]-4-[(oxan-4-yl)amino]pyridine-2-carboxamide] | A (a Ki ratio greater than or equal to 10 fold between the Ki in the presence of SAM and the Ki in the presence of MTA) | – |
| 50 to 500 | ≥ 5 | 50 to 500 | – | Cc1c(OCc2cnco2)ccc2c1CCN(C[C@@H](O)CNC(=O)c1cc(NC3CN(C(=O)C4CCC4)C3)ncn1)C2 [Compound 585, 6-[(1-cyclobutanecarbonylazetidin-3-yl)amino]-N-[(2S)-2-hydroxy-3-{5-methyl-6-[(1,3-oxazol-5-yl)methoxy]-1,2,3,4-tetrahydroisoquinolin-2-yl}propyl]pyrimidine-4-carboxamide] | A (a Ki ratio greater than or equal to 10 fold between the Ki in the presence of SAM and the Ki in the presence of MTA) | – |
| 50 to 500 | ≥ 5 | 50 to 500 | – | CO[C@H]1C[C@H](Nc2cc(C(=O)NC[C@H](O)CN3CCc4c(ccc(OCc5cnco5)c4C)C3)ccn2)C1 [Compound 591, N-[(2S)-2-hydroxy-3-{5-methyl-6-[(1,3-oxazol-5-yl)methoxy]-1,2,3,4-tetrahydroisoquinolin-2-yl}propyl]-2-{[(1r,3r)-3-methoxycyclobutyl]amino}pyridine-4-carboxamide] | A (a Ki ratio greater than or equal to 10 fold between the Ki in the presence of SAM and the Ki in the presence of MTA) | – |
| 500 to 5000 | 0.5 to 5 | 50 to 500 | – | O=C(NC[C@H](O)CN1CCc2cc(OCc3cn[nH]c3)cc(F)c2C1)c1ccnc(NC2CCC2)c1 [Compound 596, 2-(cyclobutylamino)-N-[(2S)-3-[8-fluoro-6-(1H-pyrazol-4-ylmethoxy)-3,4-dihydro-1H-isoquinolin-2-yl]-2-hydroxy-propyl]pyridine-4-carboxamide] | A (a Ki ratio greater than or equal to 10 fold between the Ki in the presence of SAM and the Ki in the presence of MTA) | – |
| 500 to 5000 | ≥ 5 | 50 to 500 | – | CC(=O)N1CC(Nc2nc(C(=O)NC[C@H](O)CN3CCc4cc(OCc5ocnc5C)ccc4C3)cc(N3CCCCC3)n2)C1 [Compound 608, (S)-2-((1-acetylazetidin-3-yl)amino)-N-(2-hydroxy-3-(6-((4-methyloxazol-5-yl)methoxy)-3,4-dihydroisoquinolin-2(1H)-yl)propyl)-6-(piperidin-1-yl)pyrimidine-4-carboxamide] | A (a Ki ratio greater than or equal to 10 fold between the Ki in the presence of SAM and the Ki in the presence of MTA) | – |
| 50 to 500 | ≥ 5 | 50 to 500 | – | Cc1ncoc1COc1ccc2c(c1)CCN(C[C@@H](O)CNC(=O)c1cc(NC3CCN(C)C(=O)C3)ncn1)C2 (stereo partly drawn) [Compound 613, N-[(2S)-2-hydroxy-3-{6-[(4-methyl-1,3-oxazol-5-yl)methoxy]-1,2,3,4-tetrahydroisoquinolin-2-yl}propyl]-6-[(1-methyl-2-oxopiperidin-4-yl)amino]pyrimidine-4-carboxamide] | – | – |
| 500 to 5000 | ≥ 5 | 500 to 5000 | – | CC(=O)N1C[C@@H]2[C@H](C1)[C@H]2Nc1cc(C(=O)NC[C@H](O)CN2CCc3cc(OCc4ocnc4C)ccc3C2)ncn1 [Compound 620, 6-{[(1R,5S,6R)-3-acetyl-3-azabicyclo[3.1.0]hexan-6-yl]amino}-N-[(2S)-2-hydroxy-3-[6-[(4-methyl-1,3-oxazol-5-yl)methoxy]-1,2,3,4-tetrahydroisoquinolin-2-yl]propyl]pyrimidine-4-carboxamide] | A (a Ki ratio greater than or equal to 10 fold between the Ki in the presence of SAM and the Ki in the presence of MTA) | – |
| 50 to 500 | – | 50 to 500 | ≥ 5 | Cc1ncoc1COc1ccc2c(c1)CCN(C[C@@H](O)CNC(=O)c1ccnc(NC3CCN(C)C(=O)C3)c1)C2 (stereo partly shown) [Compound 627] | – | A (a Ki ratio greater than or equal to 10 fold between the Ki in the presence of SAM and the Ki in the presence of MTA) |
| 50 to 500 | – | 50 to 500 | ≥ 5 | CC(=O)N1CC2CC1CC2Nc1cc(C(=O)NC[C@H](O)CN2CCc3cc(OCc4ocnc4C)ccc3C2)ncn1 (stereo partly drawn) [Compound 632, 6-({2-acetyl-2-azabicyclo[2.2.1]heptan-5-yl}amino)-N-[(2S)-2-hydroxy-3-{6-[(4-methyl-1,3-oxazol-5-yl)methoxy]-1,2,3,4-tetrahydroisoquinolin-2-yl}propyl]pyrimidine-4-carboxamide] | – | A (a Ki ratio greater than or equal to 10 fold between the Ki in the presence of SAM and the Ki in the presence of MTA) |
| 500 to 5000 | – | 50 to 500 | ≥ 5 | Cc1ncoc1COc1ccc2c(c1)CCN(C[C@@H](O)CNC(=O)c1cc(NC3CCC3)nc(N3CCCCC3)c1)C2 [Compound 633, 2-(cyclobutylamino)-N-[(2S)-2-hydroxy-3-{6-[(4-methyl-1,3-oxazol-5-yl)methoxy]-1,2,3,4-tetrahydroisoquinolin-2-yl}propyl]-6-(piperidin-1-yl)pyridine-4-carboxamide] | – | A (a Ki ratio greater than or equal to 10 fold between the Ki in the presence of SAM and the Ki in the presence of MTA) |
| 50 to 500 | – | 50 to 500 | 0.5 to 5 | CCCC(=O)N1CC(Nc2cc(C(=O)NC[C@H](O)CN3CCc4cc(OCc5ocnc5C)c(F)cc4C3)ccn2)C1 [Compound 643, 2-[(1-butanoylazetidin-3-yl)amino]-N-[(2S)-3-[7-fluoro-6-[(4-methyloxazol-5-yl)methoxy]-3,4-dihydro-1H-isoquinolin-2-yl]-2-hydroxy-propyl]pyridine-4-carboxamide] | – | A (a Ki ratio greater than or equal to 10 fold between the Ki in the presence of SAM and the Ki in the presence of MTA) |

| Compound | IC50 [1] [nM] | IC50 [2] [µM] | IC50 [3] [nM] | IC50 ([2]; read-out: No Co-factor IC50) [µM] | SAM/MTA Ratio [3, 4] | SAM/MTA Ratio [3, 5] |
| --- | --- | --- | --- | --- | --- | --- |
| CC(=O)N1[C@@H]2CC[C@H]1C[C@@H](Nc1cc(C(=O)NC[C@H](O)CN3CCc4cc(OCc5ocnc5C)ccc4C3)ncn1)C2 [Compound 630, 6-{[(1R,3R,5S)-8-acetyl-8-azabicyclo[3.2.1]octan-3-yl]amino}-N-[(2S)-2-hydroxy-3-{6-[(4-methyl-1,3-oxazol-5-yl)methoxy]-1,2,3,4-tetrahydroisoquinolin-2-yl}propyl]pyrimidine-4-carboxamide] | 500 to 5000 | – | 50 to 500 | ≥ 5 | – | A (a Ki ratio greater than or equal to 10 fold between the Ki in the presence of SAM and the Ki in the presence of MTA) |
